“Also recorded” adds a separate entry of the source.
Columns and labels:
NIH/Swiss mice = assay: Oral glucose tolerance test (OGTT), glucose lowering; assay type: in vivo; settings: IP injection, 2 hour fasted NIH/Swiss mice, FIGS. 5 and 6
Protocol: . Test compounds were injected IP (t=0 min) immediately following baseline measurements of 2 hour fasted NIH/Swiss mice. Blood samples were taken at 60, 120, and 180 minutes after injection. In some assays, samples were also taken at 240 minutes after the injection. Blood glucose was measured with a One-Touch® Ultra® glucose meter (LifeScan, Inc., Milpitas, Calif.). […].
The tests were performed as described in Example 5.

in vitro = settings: human, kidney or brush border membranes, pH 7.4
Protocol: The tubes were incubated in VorTemp 56™ (Eurotech Labs, UK) at 37° C. vortexed at 500 RPM. At time points of 0, 1, 2, 3, 4, and 5 hours, 200 μl STOP solution (50% ACN, 1% formic acid) was added to a given tube, and the samples were allowed to incubate until the end of the experiment. The samples were collected after 5 hours, centrifuged, and 200 μl of the supernatants were transferred into mass spectrometry vials. The intensities of the mother ions in each vial were analyzed with API 150EX™ mass spectrometer (Applied Biosystems, Foster City, Calif.) and quantified using the ANALYST™ program.
The hKBBM assay was also performed in the presence of valinepyrrolidide, a DPP-IV inhibitor.

ACE from rabbit lung = target: T1, ACE from rabbit lung (Oryctolagus cuniculus, UniProt P12822); assay: ACE inhibition assay; assay type: biochemical
T1 construct: ACE from rabbit lung; purchased Sigma Chemical Co; host or cells: rabbit lung tissue
T1 sequence (P12822 34-1310): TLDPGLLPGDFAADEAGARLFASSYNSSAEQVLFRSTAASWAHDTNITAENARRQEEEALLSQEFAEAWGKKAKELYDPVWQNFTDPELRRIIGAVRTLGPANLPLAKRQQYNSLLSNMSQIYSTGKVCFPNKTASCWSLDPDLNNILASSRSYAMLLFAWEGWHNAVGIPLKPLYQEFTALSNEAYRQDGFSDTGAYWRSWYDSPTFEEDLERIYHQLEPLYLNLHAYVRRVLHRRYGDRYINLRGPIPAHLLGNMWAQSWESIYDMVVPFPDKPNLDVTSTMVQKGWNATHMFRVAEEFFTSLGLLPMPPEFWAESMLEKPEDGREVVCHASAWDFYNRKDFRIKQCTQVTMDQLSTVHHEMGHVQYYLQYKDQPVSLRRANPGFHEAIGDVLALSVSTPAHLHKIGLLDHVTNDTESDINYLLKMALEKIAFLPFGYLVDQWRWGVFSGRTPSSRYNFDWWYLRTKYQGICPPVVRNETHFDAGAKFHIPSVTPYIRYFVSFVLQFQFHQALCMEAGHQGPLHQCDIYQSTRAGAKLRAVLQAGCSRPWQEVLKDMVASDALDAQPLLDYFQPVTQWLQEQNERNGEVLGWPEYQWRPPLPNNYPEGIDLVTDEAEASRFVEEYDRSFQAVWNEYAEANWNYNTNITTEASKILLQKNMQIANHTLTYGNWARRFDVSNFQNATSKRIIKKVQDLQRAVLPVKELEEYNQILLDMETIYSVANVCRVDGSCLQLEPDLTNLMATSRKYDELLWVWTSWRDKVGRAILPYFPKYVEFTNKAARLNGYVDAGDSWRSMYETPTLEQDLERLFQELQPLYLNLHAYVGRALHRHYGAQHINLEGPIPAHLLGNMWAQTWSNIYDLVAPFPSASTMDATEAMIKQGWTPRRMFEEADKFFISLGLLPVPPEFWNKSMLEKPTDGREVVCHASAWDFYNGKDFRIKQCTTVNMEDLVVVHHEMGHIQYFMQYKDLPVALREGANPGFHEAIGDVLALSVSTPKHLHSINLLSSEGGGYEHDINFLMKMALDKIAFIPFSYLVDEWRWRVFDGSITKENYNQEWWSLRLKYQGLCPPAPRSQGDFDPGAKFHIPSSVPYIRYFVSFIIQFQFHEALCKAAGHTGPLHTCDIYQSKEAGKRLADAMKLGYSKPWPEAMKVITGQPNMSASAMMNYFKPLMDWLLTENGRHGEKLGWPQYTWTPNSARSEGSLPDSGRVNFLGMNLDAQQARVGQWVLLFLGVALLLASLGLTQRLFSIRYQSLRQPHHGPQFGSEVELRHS
Protocol: Peptide-ACE peptidase inhibitor conjugate compounds were assessed in an ACE inhibition assay using purified ACE enzyme and chromogenic substrates. An ACE stock solution was prepared by dissolving 0.1 unit of enzyme (ACE from rabbit lung, Sigma Chemical Co., St. Louis, Mo.) in 0.640 mL of HEPES buffer (0.1 M, pH=8). A 2 mM stock solution of substrate (N-benzyloxycarbonyl-Phe-His-Leu-OH) dissolved in methanol. The ACE inhibitor compounds were dissolved in phosphate buffer (0.1 M, pH=8) at concentrations of 0.0, 1, 10, 20, 60 and 100 μM. For the inhibition assay, six 2 mL microcentrifuge tubes were prepared containing 1.45 mL of phosphate buffer pH=8, 0.05 mL of 10% NaCl and 0.015 mL of substrate solution. To each microcentrifuge tube was added 0.015 mL of one of the ACE inhibitor compound's stock solutions. The solutions were heated at 37° C. for about 5 minutes. The reaction was started by the addition of 5 μL of the ACE stock solution to each tube mixture (30 seconds in between). The reaction mixtures were incubated at 37° C. After 5 min, 10 min, 30 min and 60 min., aliquots of 100 μL were taken from each tube (each sample was taken in intervals of 30 seconds). Tubes containing the 100 μL sample were floated in a boiling water bath for 5 min. and then cooled. The reaction samples were then treated with 20 μL of 2M NaOH and 20 μL of 0.1% phthaldialdehyde solution. The tubes were shaken for 4 minutes and 10 μL of 6 M HCl were added. […] Initial rates were determined from linear portions of product release curves. Starting substrate concentration in all assays was 20 μM. Apparent binding constants (Kd^app or Ki^app) of inhibitors to ACE were determined by fitting inhibition curves (initial rate vs. inhibitor concentration) to equation:
[formula] where v0 is reaction rate in the absence of inhibitor and [I]-inhibitor concentration. Fits were done by least-squares method using KaleidaGraph 3.6 (Synergy Software, Reading Pa.).

[1] = tested on: Dahl salt-sensitive (DSS) male rats; assay: Congestive heart failure (CHF) in vivo assay; settings: 10 μg/kg/day subcutaneous infusion, high-salt diet
Protocol: In this assay, Dahl salt-sensitive (DSS) male rats were weaned at 21 days of age, maintained on a low-salt (LS) diet (0.2% NaCl) for 2 weeks. Rats were anesthetized with ketamine/xylazine (50 mg/kg/10 mg/kg, IP) and telemetry transmitters (Data Sciences, Inc.) were inserted to the aortic artery when rats were at 5 weeks of age. After surgery, the rats were allowed 10 days to recuperate before their BP (systolic and diastolic pressures) was recorded.
HS control animals (n=10 rats) were administered vehicle (50% DMSO) and fed HS in the same manner. LS control animals (n=5 rats) were maintained on the LS diet.

recombinant DPP-IV = recombinant DPP-IV in assay buffer (25 mM Tris-HCl, 140 mM NaCl, 10 mM KCl, pH 7.4); settings: room temperature, up to 15 hours

Molecule	glucose lowering in OGTT (in words) (NIH/Swiss mice)	remaining at 4 h (in vitro) [%]	not cleaved (recombinant DPP-IV)	other results
CC[C@H](C)[C@H](NC(=O)[C@H](Cc1ccccc1)NC(=O)[C@H](CCC(=O)O)NC(=O)[C@H](CCCCN)NC(=O)[C@H](C)NC(=O)[C@H](C)NC(=O)[C@H](CCC(N)=O)NC(=O)CNC(=O)[C@H](CCC(=O)O)NC(=O)[C@H](CC(C)C)NC(=O)[C@H](Cc1ccc(O)cc1)NC(=O)[C@H](CO)NC(=O)[C@H](CO)NC(=O)[C@@H](NC(=O)[C@H](CC(=O)O)NC(=O)[C@H](CO)NC(=O)[C@@H](NC(=O)[C@H](Cc1ccccc1)NC(=O)[C@@H](NC(=O)CNC(=O)[C@H](CCC(=O)O)NC(=O)[C@H](C)NC(=O)[C@H](Cc1c[nH]cn1)NC(=O)COCCOCCNC(=O)[C@@H]1CCCN1C(=O)[C@H](C)NC(CCc1ccccc1)C(=O)O)[C@@H](C)O)[C@@H](C)O)C(C)C)C(=O)N[C@@H](C)C(=O)N[C@@H](Cc1c[nH]c2ccccc12)C(=O)N[C@@H](CC(C)C)C(=O)N[C@H](C(=O)N[C@@H](CCCCN)C(=O)NCC(=O)N[C@@H](CCCNC(=N)N)C(N)=O)C(C)C (stereo partly drawn) [Compound 4983, (R,S)-1-[N^2-(1-carboxy-3-phenylpropyl)-L-ala]-L-pro-8-amino-3,6-dioxaoctanoyl-GLP-1-(7-36) amide]	enhance glucose-lowering action compared to GLP-1	> 80		
CC[C@H](C)[C@H](NC(=O)[C@H](Cc1ccccc1)NC(=O)[C@H](CCC(=O)O)NC(=O)[C@H](CCCCN)NC(=O)[C@H](C)NC(=O)[C@H](C)NC(=O)[C@H](CCC(N)=O)NC(=O)CNC(=O)[C@H](CCC(=O)O)NC(=O)[C@H](CC(C)C)NC(=O)[C@H](Cc1ccc(O)cc1)NC(=O)[C@H](CO)NC(=O)[C@H](CO)NC(=O)[C@@H](NC(=O)[C@H](CC(=O)O)NC(=O)[C@H](CO)NC(=O)[C@@H](NC(=O)[C@H](Cc1ccccc1)NC(=O)[C@@H](NC(=O)CNC(=O)[C@H](CCC(=O)O)NC(=O)[C@H](C)NC(=O)[C@H](Cc1c[nH]cn1)NC(=O)COCCOCCNC(=O)COCCOCCNC(=O)[C@@H]1CCCN1C(=O)[C@H](C)NC(CCc1ccccc1)C(=O)O)[C@@H](C)O)[C@@H](C)O)C(C)C)C(=O)N[C@@H](C)C(=O)N[C@@H](Cc1c[nH]c2ccccc12)C(=O)N[C@@H](CC(C)C)C(=O)N[C@H](C(=O)N[C@@H](CCCCN)C(=O)NCC(=O)N[C@@H](CCCNC(=N)N)C(N)=O)C(C)C (stereo partly drawn) [Compound 4984, (R,S)-1-[N^2-(1-carboxy-3-phenylpropyl)-L-ala]-L-pro-8-amino-3,6-dioxaoctanoyl-8-amino-3,6-dioxaoctanoyl-GLP-1-(7-36) amide]	enhance glucose-lowering action compared to GLP-1; also recorded: prolonged effect 4 hours after dosing	> 80		
CC[C@H](C)[C@H](NC(=O)[C@H](Cc1ccccc1)NC(=O)[C@H](CC(C)C)NC(=O)[C@H](CCCNC(=N)N)NC(=O)[C@@H](NC(=O)[C@H](C)NC(=O)[C@H](CCC(=O)O)NC(=O)[C@H](CCC(=O)O)NC(=O)[C@H](CCC(=O)O)NC(=O)[C@H](CC(C)C)NC(=O)[C@H](CCC(N)=O)NC(=O)[C@H](CCCCN)NC(=O)[C@H](CO)NC(=O)[C@H](CC(C)C)NC(=O)[C@H](CC(=O)O)NC(=O)[C@H](CO)NC(=O)[C@@H](NC(=O)[C@H](Cc1ccccc1)NC(=O)[C@@H](NC(=O)CNC(=O)[C@H](CCC(=O)O)NC(=O)CNC(=O)[C@@H](N)Cc1c[nH]cn1)[C@@H](C)O)[C@@H](C)O)C(C)C)C(=O)N[C@@H](CCC(=O)O)C(=O)N[C@@H](Cc1c[nH]c2ccccc12)C(=O)N[C@@H](CC(C)C)C(=O)N[C@@H](CCCCN)C(=O)N[C@@H](CCC(N)=O)C(=O)NCC(=O)NCC(=O)N1CCC[C@H]1C(=O)N[C@@H](CO)C(=O)N[C@@H](CCCCN)C(=O)N[C@@H](CCC(=O)O)C(=O)N[C@H](C(=O)N[C@H](C(=O)N[C@@H](CO)C(=O)NCCOCCOCCOCC(=O)NCCOCCOCC(=O)NCCCC[C@H](NC(CCc1ccccc1)C(=O)O)C(=O)N1CCC[C@H]1C(=O)O)[C@@H](C)CC)[C@@H](C)CC (stereo partly shown) [Compound 5715]				IC50 (ACE from rabbit lung): 260 nM; mean diastolic blood pressure at week 5 [1]: 112 mmHg; mean heart rate at week 5 [1]: 381; mean systolic blood pressure at week 5 [1]: 161 mmHg
GLP-1(7-37)-GG-(S)-2,6-diamino-1-(thiazolidin-2-cyano-3-yl)hexan-1-one amide			expected product ions were not observed; DPP-IV resistant under the test conditions	
GLP-1(7-37)-GG-(S)-2,6-diamino-1-(thiazolidin-3-yl)hexan-1-one amide			expected product ions were not observed; DPP-IV resistant under the test conditions	
